In ChEMBL document CHEMBL5321257, “Development of VER-50589 analogs as novel Hsp90 inhibitors” (Bioorg Med Chem Lett, 2023):
Several values for one entry are separate records, joined by “and”; a condition that tells them apart may be missing. Identical values can stand only once. Activity calls are given as the source filed them. No cut-off for these calls is given here.

How the values were obtained:
MDA-MB-231 = assay: Cytotoxicity against human MDA-MB-231 cells by MTT assay; format: functional, cell-based
ES-2 = assay: Cytotoxicity against human ES2 cells by MTT assay; format: functional, cell-based
Heat shock protein HSP90 [1] = target: T1, Heat shock protein HSP90 (Homo sapiens, UniProt P07900+P08238); assay: Inhibition of Hsp90 (unknown origin); format: protein assay
A549 [2] = assay: Cytotoxicity against human A549 cells by MTT assay; format: functional, cell-based
HeLa = assay: Cytotoxicity against human HeLa cells by MTT assay; format: functional, cell-based
MCF7 = assay: Cytotoxicity against human MCF7 cells by MTT assay; format: functional, cell-based
[3] = Cytotoxicity against human 95-D cells by MTT assay; format: functional, cell-based
A549 [4] = assay: Induction of apoptosis in human A549 cells assessed as viable cells at 50 nM incubated for 48 hrs by annexin V-FITC/7-AAD staining based flow cytometry (reference value: 96.1 %); format: functional; conditions: read-out: Activity
A549 [5] = assay: Induction of cell cycle arrest in human A549 cells assessed as accumulation at G1 phase at 50 nM incubated for 48 hrs by flow cytometry (reference value: 61.70 %); format: functional
A549 [6] = assay: Induction of apoptosis in human A549 cells assessed as early apoptotic cells at 200 nM incubated for 48 hrs by annexin V-FITC/7-AAD staining based flow cytometry (reference value: 0.32 %); format: functional
A549 [7] = assay: Induction of apoptosis in human A549 cells assessed as viable cells at 200 nM incubated for 48 hrs by annexin V-FITC/7-AAD staining based flow cytometry (reference value: 96.1 %); format: functional; conditions: read-out: Activity
A549 [8] = assay: Induction of apoptosis in human A549 cells assessed as necrotic cells at 50 nM incubated for 48 hrs by annexin V-FITC/7-AAD staining based flow cytometry (reference value: 0.92 %); format: functional
A549 [9] = assay: Induction of apoptosis in human A549 cells assessed as late apoptotic cells at 200 nM incubated for 48 hrs by annexin V-FITC/7-AAD staining based flow cytometry (reference value: 0.64 %); format: functional
A549 [10] = assay: Induction of cell cycle arrest in human A549 cells assessed as accumulation at S phase at 200 nM incubated for 48 hrs by flow cytometry (reference value: 35.77 %); format: functional
A549 [11] = assay: Induction of cell cycle arrest in human A549 cells assessed as accumulation at S phase at 50 nM incubated for 48 hrs by flow cytometry (reference value: 35.77 %); format: functional
A549 [12] = assay: Induction of cell cycle arrest in human A549 cells assessed as accumulation at G2 phase at 50 nM incubated for 48 hrs by flow cytometry (reference value: 2.53 %); format: functional
A549 [13] = assay: Induction of cell cycle arrest in human A549 cells assessed as accumulation at G1 phase at 200 nM incubated for 48 hrs by flow cytometry (reference value: 61.70 %); format: functional
A549 [14] = assay: Induction of cell cycle arrest in human A549 cells assessed as accumulation at G2/G1 phase at 200 nM incubated for 48 hrs by flow cytometry (reference value: 2 %); format: functional
A549 [15] = assay: Induction of apoptosis in human A549 cells assessed as early apoptotic cells at 50 nM incubated for 48 hrs by annexin V-FITC/7-AAD staining based flow cytometry (reference value: 0.32 %); format: functional
A549 [16] = assay: Induction of apoptosis in human A549 cells assessed as necrotic cells at 200 nM incubated for 48 hrs by annexin V-FITC/7-AAD staining based flow cytometry (reference value: 0.92 %); format: functional
A549 [17] = assay: Induction of apoptosis in human A549 cells assessed as late apoptotic cells at 50 nM incubated for 48 hrs by annexin V-FITC/7-AAD staining based flow cytometry (reference value: 0.64 %); format: functional
A549 [18] = assay: Induction of cell cycle arrest in human A549 cells assessed as accumulation at G2 phase at 200 nM incubated for 48 hrs by flow cytometry (reference value: 2.53 %); format: functional
A549 [19] = assay: Induction of cell cycle arrest in human A549 cells assessed as accumulation at G2/G1 phase at 50 nM incubated for 48 hrs by flow cytometry (reference value: 2 %); format: functional
Heat shock protein HSP90 [20] = target: T1, Heat shock protein HSP90; assay: Inhibition of Hsp90 in human A549 cells assessed as upregulation of Hsp70 level at 25 to 100 nM by Western blot analysis; format: cell-based; conditions: dose 25-100 nM
A549 [21] = assay: Anti-migration activity in human A549 cells at 0.3 to 3 nM incubated for 48 hrs by scratch wound healing assay; format: functional, cell-based; conditions: dose 0.3-3 nM
Heat shock protein HSP90 [22] = target: T1, Heat shock protein HSP90; assay: Inhibition of Hsp90 in human A549 cells assessed as downregulation of CDK4 level by Western blot analysis; format: cell-based; conditions: dose 25-100 nM
A549 [23] = assay: Induction of apoptosis in human A549 cells assessed as late apoptotic cells at 10 nM incubated for 48 hrs by annexin V-FITC/7-AAD staining based flow cytometry (reference value: 0.64 %); format: functional
A549 [24] = assay: Induction of cell cycle arrest in human A549 cells assessed as accumulation at S phase at 10 nM incubated for 48 hrs by flow cytometry (reference value: 35.77 %); format: functional
A549 [25] = assay: Induction of cell cycle arrest in human A549 cells assessed as accumulation at G2 phase at 10 nM incubated for 48 hrs by flow cytometry (reference value: 2.53 %); format: functional
A549 [26] = assay: Induction of apoptosis in human A549 cells assessed as early apoptotic cells at 10 nM incubated for 48 hrs by annexin V-FITC/7-AAD staining based flow cytometry (reference value: 0.32 %); format: functional
A549 [27] = assay: Induction of apoptosis in human A549 cells assessed as viable cells at 10 nM incubated for 48 hrs by annexin V-FITC/7-AAD staining based flow cytometry (reference value: 96.1 %); format: functional; conditions: read-out: Activity
A549 [28] = assay: Inhibition of colony formation in human A549 cells; format: functional, cell-based; conditions: dose 10-20 nM
A549 [29] = assay: Induction of cell cycle arrest in human A549 cells assessed as accumulation at G2/G1 phase at 10 nM incubated for 48 hrs by flow cytometry (reference value: 2 %); format: functional
Heat shock protein HSP90 [30] = target: T1, Heat shock protein HSP90; assay: Inhibition of Hsp90 in human A549 cells assessed as downregulation of HER2 level by Western blot analysis; format: cell-based; conditions: dose 25-100 nM
A549 [31] = assay: Induction of cell cycle arrest in human A549 cells assessed as accumulation at G1 phase at 10 nM incubated for 48 hrs by flow cytometry (reference value: 61.70 %); format: functional
A549 [32] = assay: Induction of apoptosis in human A549 cells assessed as necrotic cells at 10 nM incubated for 48 hrs by annexin V-FITC/7-AAD staining based flow cytometry (reference value: 0.92 %); format: functional

| Compound | IC50 (MDA-MB-231) [nM] | IC50 (ES-2) [nM] | IC50 (Heat shock protein HSP90 [1]) [nM] | IC50 (A549 [2]) [nM] | IC50 (HeLa) [nM] | IC50 (MCF7) [nM] | IC50 [3] [nM] | viability at 0.05 µM (A549 [4]) [%] | Activity (A549 [5]) [%] | Activity (A549 [6]) [%] | viability at 0.2 µM (A549 [7]) [%] | Activity (A549 [8]) [%] | Activity (A549 [10]) [%] | Activity (A549 [11]) [%] | Activity (A549 [12]) [%] | Activity (A549 [13]) [%] | Activity (A549 [14]) [%] | Activity (A549 [15]) [%] | Activity (A549 [16]) [%] | Activity (A549 [17]) [%] | other results |
| --- | --- | --- | --- | --- | --- | --- | --- | --- | --- | --- | --- | --- | --- | --- | --- | --- | --- | --- | --- | --- | --- |
| CCNC(=O)c1noc(-c2cc(C(C)C)c(O)cc2O)c1-c1ccc(P(C)(C)=O)cc1 | 214 | 156 | 171 | 730 | 210 | 230 | 676 |  |  |  |  |  |  |  |  |  |  |  |  |  |  |
| COC1=C2C[C@@H](C)C[C@H](OC)[C@H](O)[C@@H](C)/C=C(\C)[C@H](OC(N)=O)[C@@H](OC)/C=C\C=C(/C)C(=O)NC(=CC1=O)C2=O [GELDANAMYCIN] |  |  |  |  |  |  |  | 93.3 | 60.64 | 3.26 | 90.6 | 2.31 | 22 | 35.64 | 3.72 | 68.97 | 2 | 1.78 | 2.38 | 2.58 | Activity (A549 [9]): 3.77%; Activity (A549 [18]): 9.03%; Activity (A549 [19]): 2% |
| CCNC(=O)c1noc(-c2cc(Cl)c(O)cc2O)c1-c1ccc(OC)cc1 | 75.8 | 50.4 |  | 223 | 219 | 69.6 |  |  |  |  |  |  |  |  |  |  |  |  |  |  |  |
| CCNC(=O)c1noc(-c2cc(C(C)C)c(O)cc2O)c1-c1ccc([N+](=O)[O-])cc1 | 5.26 | 12.4 | 15 | 16.2 | 19 | 2.89 | 2.91 |  |  |  |  |  |  |  |  |  |  |  |  |  |  |
| CCNC(=O)c1noc(-c2cc(C(C)C)c(O)cc2O)c1-c1ccc(S(C)(=O)=O)cc1 | 2.81 | 8.6 | 9 | 8.65 | 2 | 1.35 | 1.69 | 93 | 70.94 | 5.98 | 82.5 | 2.24 | 6.98 | 15.68 | 13.38 | 78.26 | 2 | 1.7 | 2.94 | 3.1 | inhibition (Heat shock protein HSP90 [20]): Active; Activity (A549 [21]): Active; inhibition (Heat shock protein HSP90 [22]): Dose-Dependent Effect; Activity (A549 [23]): 1.15%; Activity (A549 [24]): 41.43%; Activity (A549 [9]; 48 h, 0.2 µM): 2.74% and 8.59%; Activity (A549 [25]): 3.19%; Activity (A549 [26]): 2.74%; viability at 0.01 µM (A549 [27]): 95.5%; inhibition (A549 [28]): Dose-Dependent Effect; Activity (A549 [29]): 2%; Activity (A549 [18]): 14.76%; inhibition (Heat shock protein HSP90 [30]): Dose-Dependent Effect; Activity (A549 [31]): 55.38%; Activity (A549 [32]): 0.59%; Activity (A549 [19]): 2% |
